US20170112861A1, “DRUG DELIVERY ENHANCER COMPRISING SUBSTANCE FOR ACTIVATING LYSOPHOSPHOLIPID RECEPTORS” (Osaka University, priority 2014, published 2017)

Key:
Format in all cases: in vivo
LLC cells = assay: Combined administration of LPA and 5-FU, tumor growth in LLC cell tumor-bearing mice
Protocol: (§1) LLC cells were subcutaneously inoculated into C57BL/6 NCrSlc mice aged 8 weeks in the same manner as in Example 1. An LPA administration solution was prepared in the same manner as in Example 1. The anticancer drug used was 5-FU (Kyowa Hakko Kirin Co., Ltd.). The 5-FU was prepared as a solution in physiological saline (Otsuka Pharmaceutical Co., Ltd.). On day 7 post-inoculation of LLC cells, mice with a tumor volume of 30 to 50 mm^3 were selected and subjected to the test. The mice were divided into four groups: control group, 5-FU group, LPA group and 5-FU/LPA group (n=3). LPA (3 mg/kg in 100 μL PBS) or 5-FU (100 mg/kg in 100 μL PBS) or PBS (100 μL) was administered intraperitoneally. To 5-FU/LPA group, both LPA and 5-FU were administered intraperitoneally. LPA and PBS were administered once daily for consecutive seven days. 5-FU was administered twice in total, once a week for two weeks (on days 7 and 14 post-inoculation). The tumor size was measured over time after start of administration. The tumor volume was calculated by the formula: volume=length×width×height×0.5. Mice at 2 weeks after start of administration were photographed with a digital camera under anesthesia with pentobarbital. The tumors were harvested and photographed with a digital camera.

[1] = test system: Mouse colon cancer colon 26 cells; assay: Combined administration of LPA and oxaliplatin, tumor growth in colon 26 cell tumor-bearing mice; settings: colon 26 tumors in BALB/c mice; LPA 3 mg/kg i.p.; oxaliplatin 1.5 mg/kg i.p.
Protocol: as §1
Mouse colon cancer colon 26 cells were used. […]

LLC cell tumors = assay: Doxorubicin delivery from tumor blood vessels to tumor tissues after LPA administration; settings: LLC tumor-bearing mice, LPA 3 mg/kg i.p., doxorubicin 1.5 mg/kg i.v. 24 hours later, tumors harvested after 20 minutes
Protocol: LLC cells were subcutaneously inoculated into C57BL/6 NCrSlc mice aged 8 weeks (females, SLC, Inc.) in the same manner as in Example 1. An LPA administration solution was prepared in the same manner as in Example 1. On day 11 post-inoculation of LLC cells, mice with a tumor volume of 100 to 120 mm^3 were selected. The mice were divided into two groups: control group and LPA group (n=3). LPA (3 mg/kg in 100 μL PBS) or PBS (100 μL) was administered intraperitoneally. At 24 hours after LPA or PBS administration, doxorubicin (doxorubicin hydrochloride, Nippon Kayaku Co., Ltd.) was administered to the tail vein of the mice at a dose of 1.5 mg/kg under anesthesia with pentobarbital. The doxorubicin was prepared as a solution by dissolving and diluting the doxorubicin hydrochloride in physiological saline (Otsuka Pharmaceutical Co., Ltd.) to a concentration of 1.5 mg/kg and homogenizing the solution with an ultrasonic cleaner for 1 minute before administration. Doxorubicin is an autofluorescent anticancer drug that can be detected at an excitation wavelength of 480 nm and a measurement wavelength of 575 nm. At 20 minutes after administration of doxorubicin, the tumors were harvested from the mice, and the tumor specimens were prepared in the same manner as in Example 1 except that the thickness of the sections was 20 μm. […]

lysophosphatidic acid [LPA]
tumor growth (tumor volume) (LLC cells; LLC tumors, LPA 3 mg/kg i.p. once daily for seven days, 5-FU 100 mg/kg i.p. on days 7 and 14): some inhibitory effects on tumor growth as compared with the control | appearance of tumors (blood flow) (LLC cells; LPA alone 3 mg/kg i.p. once daily for seven days): the tumors appeared reddish, indicating an increase in the blood flow | tumor growth (tumor volume) [1]: some inhibitory effects on tumor growth as compared with the control, up to day 17 post-inoculation | delivery of doxorubicin from blood vessels to tumor (LLC cell tumors): delivery of doxorubicin from the blood vessels to tumors in the deep lobe was observed
